Measured values taken from paper PMC2682676 (Diabetes, 2009).

What was measured:
αTC1 cells = test: Glucagon secretion from αTC1 cells; assay type: cell-based; settings: αTC1 cells stimulated with GIP; secretion into the medium
[1] = system: subjects with type 2 diabetes; assay type: in vivo, human
[2] = system: subjects with type 2 diabetes; test: Gastric emptying by appearance of acetaminophen in plasma during GIP infusion; assay type: in vivo, human; settings: 1 g acetaminophen with first bite; last 10 subjects

CC[C@H](C)[C@H](NC(=O)[C@H](CO)NC(=O)[C@H](Cc1ccc(O)cc1)NC(=O)[C@H](CC(=O)O)NC(=O)[C@H](CO)NC(=O)[C@@H](NC(=O)[C@H](Cc1ccccc1)NC(=O)[C@@H](NC(=O)CNC(=O)[C@H](CCC(=O)O)NC(=O)[C@H](C)NC(=O)[C@@H](N)Cc1ccc(O)cc1)[C@@H](C)O)[C@@H](C)CC)C(=O)N[C@@H](C)C(=O)N[C@@H](CCSC)C(=O)N[C@@H](CC(=O)O)C(=O)N[C@@H](CCCCN)C(=O)N[C@H](C(=O)N[C@@H](Cc1c[nH]cn1)C(=O)N[C@@H](CCC(N)=O)C(=O)N[C@@H](CCC(N)=O)C(=O)N[C@@H](CC(=O)O)C(=O)N[C@@H](Cc1ccccc1)C(=O)N[C@H](C(=O)N[C@@H](CC(N)=O)C(=O)N[C@@H](Cc1c[nH]c2ccccc12)C(=O)N[C@@H](CC(C)C)C(=O)N[C@@H](CC(C)C)C(=O)N[C@@H](C)C(=O)N[C@@H](CCC(N)=O)C(=O)N[C@@H](CCCCN)C(=O)NCC(=O)N[C@@H](CCCCN)C(=O)N[C@@H](CCCCN)C(=O)N[C@@H](CC(N)=O)C(=O)N[C@@H](CC(=O)O)C(=O)N[C@@H](Cc1c[nH]c2ccccc12)C(=O)N[C@@H](CCCCN)C(=O)N[C@@H](Cc1c[nH]cn1)C(=O)N[C@@H](CC(N)=O)C(=O)N[C@H](C(=O)N[C@H](C(=O)N[C@@H](CCC(N)=O)C(=O)O)[C@@H](C)O)[C@@H](C)CC)C(C)C)[C@@H](C)CC [GIP, Glucose-dependent insulinotropic polypeptide]
glucagon secretion (αTC1 cells): glucagon secretion in a concentration-dependent manner | plasma glucagon, early postprandial period vs placebo ([1]; 20 ng/kg/min i.v., 0-60 min, positive AUC0-60 P < 0.01, n = 22): statistically significant augmentation in glucagon secretion | plasma glucose, early postprandial period vs placebo ([1]; 20 ng/kg/min i.v., t = 0-60 min, negative AUC0-60 P < 0.05, n = 22): early transient decrease in plasma glucose | plasma insulin, early postprandial period vs placebo ([1]; 20 ng/kg/min i.v., t = 0-60 min, positive AUC0-60 P < 0.01, n = 22): statistically significant increase in plasma insulin | resistin levels vs placebo ([1]; during 3 h of infusion, data not shown): no effect on resistin levels | gastric emptying (plasma acetaminophen levels, AUCALL t = 0-180 min) vs placebo [2]: did not affect gastric emptying
